Source: patent US6037351A, “Method of inhibiting hepatitis B virus” (priority 1996, dated 2000)

What was measured:
[1] = Viability of 2.2.15 cells (propidium iodide FACS, 35S methionine incorporation); format: cell-based; conditions: human, 1000 μg/ml, six days, read-out: cells as viable as untreated controls
Description: Cell viability was measured by flow cytometry using a FACscan cytometer, Becton Dickinson, Sunnyvale, Calif., USA, after incubation with propidium iodide, as in Platt and Jacob, Eur. J. Biochem. 208, 187-193 (1992).
The decrease was not due to toxicity of NBDNJ, since 90% of the cells maintained in 1000 μgs/ml NBDNJ for six days were as viable as untreated controls, as determined by FACs analysis of propidium iodide stained cells and ^[35] -S methionine incorporation into proteins.

hepatitis B virus (HBV) = experiment: Progeny HBV in medium of infected HepG2 cells (immunoprecipitation, PCR, densitometry); format: cell-based, HBV in human hepatoma HepG2 cells; conditions: NBDNJ 700 μg/ml (3.2 mM), HepG2 cells infected with protease processed HBV, five days after infection
From the text: FIG. 3A and FIG. 3C: DNA from virions, immunoprecipitated with monoclonal antibody to MHBs, was amplified by polymerase chain reaction (PCR) and resolved by agarose gel electrophoresis.
These bands were imaged by densitometry and the areas under the peaks are shown in FIG. 3C in which the average of the two samples of each NBDNJ concentration was plotted.
Infection of HepG2 cells:
HBV was purified from human serum or from the medium of cultured cells by sedimentation to between 40 and 46% sucrose (w/w) following ultracentrifugation, [Seifer et al., Virol. 179, 300-311 (1990)]. Virions were dialyzed in 0.02 M Potassium Phosphate Buffer, pH 7.4, concentrated, treated with V8 protease (from Staphylococcus aureus, Sigma Chemical Co.) overnight at 37° C. centrifuged for 8 hours through a 20% sucrose/0.01M Tris, pH 7.4, 0.14 M NaCl, 0.005 M EDTA (TNE) cushion. The pellets were re-suspended in growth medium and then used to inoculate HepG2 cells.
Progeny virus in the medium of HepG2 cells infected with serum derived HBV was detected by precipitating medium with monoclonal antibody to the PreS2 epitopes. DNA from immunoprecipated virions was amplified by a polymerase chain reaction (PCR) using primers from nucleotides 2815 and 190 with respect to the viral genome (using the EcoRI site as nucleotide 1). […]

HBs proteins = experiment: ELISA of HBs proteins in virion fraction of medium (sucrose gradient); format: cell-based, HBV; conditions: 40-46% sucrose fraction
Description: FIG. 3D: Histogram of the area under the averaged peaks of the densitometric tracing of the gel in FIG. 3B. […] Equal volumes of the indicated samples were tested for HBV envelope antigens using the enzyme-linked imminosorbent assay (ELISA) method. Samples of unfractionated medium (FIGS. 4A, 4B and 4C) or partially purified virus (FIGS. 4D, 4E and 4F) from 3-day cultures were tested for HBV SHBs ("S) (FIGS. 4A and 4D), LHBs: "PreS1" (FIGS. 4B and 4E) or MHBs "PreS2" (FIGS. 4C and 4F) epitopes. Cultures were maintained in the indicated concentrations of NBDNJ, expressed in millimolar units and shown along the X axis.
Detection of HBV proteins by the Enzyme Linked Immunoabsorbant assay (ELISA).
Monoclonal antibodies used herein are well-known and are described by Heerman et al., J. Virol. 52, 396-402 (1984), for antibody to PreS1 (MA 18/7); Heerman et al., Intervirology 28: 14-21 (1987), for antibody to PreS2 (Q 19/10), see also Gerlich and Bruss, Molecular Biology of Hepatitis B Virus, ed. […]
Bound antigen was detected by incubation with peroxidase conjugated goat anti-HBs antibody (Behring) followed by development in orthophenylenediamine (0.33 mg/ml PBS-peroxide solution). Optical densities were read in a Behring plate reader. Tests on purified virus and total medium were conducted over a series of sample dilutions to insure proper quantification. […]

SMILES: CCCCN1C[C@H](O)[C@@H](O)[C@H](O)[C@H]1CO [NBDNJ, N-butyl-1,5-dideoxy-1,5-imino-D-glucitol]
- viability at 144 h [1]: 90%
- viral DNA in medium of infected cells vs untreated (hepatitis B virus (HBV)): an order of magnitude less viral DNA
- HBs proteins in virion samples from medium (HBs proteins; NBDNJ 2.25 mM (approximately 500 μg/ml)): virtually no detectable HBs proteins
- HBs proteins in virion samples from medium (HBs proteins; NBDNJ 4.5 mM (approximately 1000 μg/ml)): virtually no detectable HBs proteins
